# Measured values: patent US9242996B2 (Novartis AG, priority 2013, dated 2016)
# Molecular target: activated ERK2 (Homo sapiens (Human), UniProt P28482)
# Experiment: Activated ERK2 kinase assay, ERK2 New conditions (AlphaScreen, ERKtide phosphorylation)
# Assay type: biochemical
# Conditions: 0.25 nM ERK2, 200 nM ERKtide peptide, 35 μM ATP, 30 min preincubation
# Outline: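 Read-out is AlphaScreen with anti-phospho-EGFR (Thr669) antibody after EDTA quench and overnight dark incubation. Reaction: 0.25 nM ERK2, 30 min compound preincubation, then 200 nM ERKtide plus 35 µM ATP for 2–3 h at ambient temperature, pH 7.5. IC50 by four-parameter fit.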
# Chain of activated ERK2 (P28482 whole entry): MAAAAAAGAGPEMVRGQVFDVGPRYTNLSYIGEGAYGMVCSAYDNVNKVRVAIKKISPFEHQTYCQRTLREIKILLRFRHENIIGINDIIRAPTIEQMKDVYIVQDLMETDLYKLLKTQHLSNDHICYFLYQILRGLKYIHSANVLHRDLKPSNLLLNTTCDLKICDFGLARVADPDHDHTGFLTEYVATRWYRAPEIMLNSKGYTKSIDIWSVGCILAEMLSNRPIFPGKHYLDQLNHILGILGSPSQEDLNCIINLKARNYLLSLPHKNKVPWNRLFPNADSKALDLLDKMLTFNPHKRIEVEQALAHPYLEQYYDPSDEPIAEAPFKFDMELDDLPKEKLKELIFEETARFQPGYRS
row,Compound,IC50 [nM]
1,"COC(=O)N1CCCC(c2cnc(N)c(-c3ccc(C(=O)N[C@H](CO)c4ccccc4)c(F)c3)n2)C1 (stereo partly drawn) [Example 214, methyl 3-(5-amino-6-(3-fluoro-4-(((S)-2-hydroxy-1-phenylethyl)carbamoyl)phenyl)pyrazin-2-yl)piperidine-1-carboxylate]",13.4
2,"CC(=O)N1CCCC(c2cnc(N)c(-c3ccc(C(=O)N[C@H](CO)c4ccccc4)c(F)c3)n2)C1 (stereo partly drawn) [Example 215, 4-(6-(1-acetylpiperidin-3-yl)-3-aminopyrazin-2-yl)-2-fluoro-N—((S)-2-hydroxy-1-phenylethyl)benzamide]",28.5
3,"COC(=O)N1CCCC(c2cnc(N)c(-c3ccc(C(=O)N[C@H](CO)c4cccc(Cl)c4)c(F)c3)n2)C1 (stereo partly drawn) [Example 216, methyl 3-(5-amino-6-(4-(((S)-1-(3-chlorophenyl)-2-hydroxyethyl)carbamoyl)-3-fluorophenyl)pyrazin-2-yl)piperidine-1-carboxylate]",1.81
4,"CCn1cc(-c2cnc(N)c(-c3ccc(C(=O)N[C@H](CO)c4ccccc4)c(F)c3)n2)cn1 [Example 217, (S)-4-(3-amino-6-(1-ethyl-1H-pyrazol-4-yl)pyrazin-2-yl)-2-fluoro-N-(2-hydroxy-1-phenylethyl) benzamide]",1.13
5,"Nc1ncc(C2CNC(=O)C2)cc1-c1ccc(C(=O)N[C@H](CO)c2ccccc2)c(F)c1 (stereo partly drawn) [Example 218, 4-(2-amino-5-(5-oxopyrrolidin-3-yl)pyridin-3-yl)-2-fluoro-N—((S)-2-hydroxy-1-phenylethyl)benzamide]",24.2
6,"Nc1ncc([C@@H]2CNC(=O)C2)cc1-c1ccc(C(=O)N[C@H](CO)c2ccccc2)c(F)c1 [Example 219, 4-(2-amino-5-((R)-5-oxopyrrolidin-3-yl)pyridin-3-yl)-2-fluoro-N—((S)-2-hydroxy-1-phenylethyl)benzamide]",32.7
7,"Nc1ncc([C@H]2CNC(=O)C2)cc1-c1ccc(C(=O)N[C@H](CO)c2ccccc2)c(F)c1 [Example 220, 4-(2-amino-5-((S)-5-oxopyrrolidin-3-yl)pyridin-3-yl)-2-fluoro-N—((S)-2-hydroxy-1-phenylethyl)benzamide]",72.3
8,"COC(=O)[C@@H]1C[C@H](c2cnc(N)c(-c3ccc(C(=O)N[C@H](CO)c4cccc(Cl)c4)c(F)c3)c2)CN1 [Example 221, (2S,4R)-methyl 4-(6-amino-5-(4-(((S)-1-(3-chlorophenyl)-2-hydroxyethyl)carbamoyl)-3-fluorophenyl)pyridin-3-yl)pyrrolidine-2-carboxylate]",30.6
9,"Nc1ncc([C@@H]2CN[C@H](C(=O)O)C2)cc1-c1ccc(C(=O)N[C@H](CO)c2cccc(Cl)c2)c(F)c1 [Example 222, (2S,4R)-4-(6-amino-5-(4-(((S)-1-(3-chlorophenyl)-2-hydroxyethyl)carbamoyl)-3-fluorophenyl)pyridin-3-yl)pyrrolidine-2-carboxylic acid]",24.8
10,"COC(=O)[C@@H]1C[C@H](c2cnc(N)c(-c3ccc(C(=O)N[C@H](CO)c4cccc(Cl)c4)c(F)c3)c2)CN1 [Example 223, (2S,4R)-methyl 4-(6-amino-5-(4-(((S)-1-(3-chlorophenyl)-2-hydroxyethyl)carbamoyl)-3-fluorophenyl)pyridin-3-yl)pyrrolidine-2-carboxylate]",10.4
11,"Nc1ncc(C2COC2)nc1-c1ccc(C(=O)N[C@H](CO)c2ccccc2)c(F)c1 [Example 224, (S)-4-(3-amino-6-(oxetan-3-yl)pyrazin-2-yl)-2-fluoro-N-(2-hydroxy-1-phenylethyl)benzamide]",18.8
12,"Cn1nccc1-c1cnc(N)c(-c2ccc(C(=O)N[C@H](CO)c3cccc(F)c3)c(F)c2)c1 [Example 229, (S)-4-(2-amino-5-(1-methyl-1H-pyrazol-5-yl)pyridin-3-yl)-2-fluoro-N-(1-(3-fluorophenyl)-2-hydroxyethyl) benzamide]",1.07
13,"Cn1nccc1-c1cnc(N)c(-c2ccc(C(=O)N[C@H](CO)c3cccc(S(C)(=O)=O)c3)c(F)c2)c1 [Example 230, (S)-4-(2-amino-5-(1-methyl-1H-pyrazol-5-yl)pyridin-3-yl)-2-fluoro-N-(2-hydroxy-1-(3-(methylsulfonyl)phenyl)ethyl) benzamide]",0.899
14,"Cc1cccc([C@@H](CO)NC(=O)c2ccc(-c3cc(-c4ccnn4C)cnc3N)cc2F)c1 [Example 231, (S)-4-(2-amino-5-(1-methyl-1H-pyrazol-5-yl)pyridin-3-yl)-2-fluoro-N-(2-hydroxy-1-(m-tolyl)ethyl) benzamide]",0.217
15,"Cn1nccc1-c1cnc(N)c(-c2ccc(C(=O)N[C@H](CO)c3cc(F)cc(Cl)c3)c(F)c2)c1 [Example 232, (S)-4-(2-amino-5-(1-methyl-1H-pyrazol-5-yl)pyridin-3-yl)-N-(1-(3-chloro-5-fluorophenyl)-2-hydroxyethyl)-2-fluorobenzamide]",0.257
16,"Cn1cncc1-c1cnc(N)c(-c2ccc(C(=O)N[C@H](CO)c3cccc(F)c3)c(F)c2)c1 [Example 234, (S)-4-(2-amino-5-(1-methyl-1H-imidazol-5-yl)pyridin-3-yl)-2-fluoro-N-(1-(3-fluorophenyl)-2-hydroxyethyl) benzamide]",1.47
17,"Cn1cncc1-c1cnc(N)c(-c2ccc(C(=O)N[C@H](CO)c3cccc(Cl)c3)c(F)c2)c1 [Example 235, (S)-4-(2-amino-5-(1-methyl-1H-imidazol-5-yl)pyridin-3-yl)-N-(1-(3-chlorophenyl)-2-hydroxyethyl)-2-fluorobenzamide]",0.326

row,Compound,IC50 [nM]
1,"Cn1cc(-c2cnc(N)c(-c3ccc(C(=O)NCc4cccc(Cl)n4)c(F)c3)c2)cn1 [Example 236, 4-(2-amino-5-(1-methyl-1H-pyrazol-4-yl)pyridin-3-yl)-N-((6-chloropyridin-2-yl)methyl)-2-fluorobenzamide]",56.6
2,"Cn1cc(CNC(=O)c2ccc(-c3cc(-c4cnn(C)c4)cnc3N)cc2F)cn1 [Example 237, 4-(2-amino-5-(1-methyl-1H-pyrazol-4-yl)pyridin-3-yl)-2-fluoro-N-((1-methyl-1H-pyrazol-4-yl)methyl) benzamide]",2610
3,"Cn1cc(-c2cnc(N)c(-c3ccc(C(=O)NCc4nccs4)c(F)c3)c2)cn1 [Example 238, 4-(2-amino-5-(1-methyl-1H-pyrazol-4-yl)pyridin-3-yl)-2-fluoro-N-(thiazol-2-ylmethyl) benzamide]",352
4,"Cn1cc(-c2cnc(N)c(-c3ccc(C(=O)NCc4ccsc4)c(F)c3)c2)cn1 [Example 239, 4-(2-amino-5-(1-methyl-1H-pyrazol-4-yl)pyridin-3-yl)-2-fluoro-N-(thiophen-3-ylmethyl) benzamide]",28.5
5,"Cn1cc(-c2cnc(N)c(-c3ccc(C(=O)NCc4cccc(C(F)F)c4)c(F)c3)c2)cn1 [Example 245, 4-(2-amino-5-(1-methyl-1H-pyrazol-4-yl)pyridin-3-yl)-N-(3-(difluoromethyl)benzyl)-2-fluorobenzamide]",2.67
6,"Cn1cc(-c2cnc(N)c(-c3ccc(C(=O)NCc4cccc(Br)c4)c(F)c3)c2)cn1 [Example 246, 4-(2-amino-5-(1-methyl-1H-pyrazol-4-yl)pyridin-3-yl)-N-(3-bromobenzyl)-2-fluorobenzamide]",1.52
7,"Cc1c(-c2cnc(N)c(-c3ccc(C(=O)N[C@H](CO)c4ccccc4)c(F)c3)n2)cnn1C [Example 247, (S)-4-(3-amino-6-(1,5-dimethyl-1H-pyrazol-4-yl)pyrazin-2-yl)-2-fluoro-N-(2-hydroxy-1-phenylethyl) benzamide]",0.73
8,"Nc1ncc(C2CC2)nc1-c1ccc(C(=O)N[C@H](CO)c2ccccc2)c(F)c1 [Example 251, (S)-4-(3-amino-6-cyclo-propylpyrazin-2-yl)-2-fluoro-N-(2-hydroxy-1-phenylethyl) benzamide]",7.04
9,"NC[C@@H](NC(=O)c1ccc(-c2nc(C3CC3)cnc2N)cc1F)c1ccccc1 [Example 252, (S)-N-(2-amino-1-phenylethyl)-4-(3-amino-6-cyclo-propylpyrazin-2-yl)-2-fluorobenzamide]",2.6
10,"Nc1ncc(-c2cn[nH]c2)nc1-c1ccc(C(=O)N[C@H](CO)c2ccccc2)c(F)c1 [Example 268, (S)-4-(3-amino-6-(1H-pyrazol-4-yl)pyrazin-2-yl)-2-fluoro-N-(2-hydroxy-1-phenylethyl) benzamide]",4.8
11,"Cc1cc(-c2cc(-c3cnn(C)c3)cnc2N)ccc1C(=O)N[C@H](CO)c1ccccc1 [Example 269, (S)-4-(2-amino-5-(1-methyl-1H-pyrazol-4-yl)pyridin-3-yl)-N-(2-hydroxy-1-phenylethyl)-2-methylbenzamide]",1.08
12,"Cn1cc(-c2cnc(N)c(-c3ccc(C(=O)N[C@H](CO)c4cccc(F)c4)c(F)c3)n2)cn1 [Example 280, (S)-4-(3-amino-6-(1-methyl-1H-pyrazol-4-yl)pyrazin-2-yl)-2-fluoro-N-(1-(3-fluorophenyl)-2-hydroxyethyl) benzamide]",1.66
13,"CS(=O)(=O)c1cccc([C@@H](CO)NC(=O)c2ccc(-c3nc(C4CC4)cnc3N)cc2F)c1 [Example 281, (S)-4-(3-amino-6-cyclo-propylpyrazin-2-yl)-2-fluoro-N-(2-hydroxy-1-(3-(methylsulfonyl)phenyl)ethyl) benzamide]",1.79
14,"Cc1nn(C)cc1-c1cnc(N)c(-c2ccc(C(=O)N[C@H](CO)c3cccc(F)c3)c(F)c2)c1 [Example 282, (S)-4-(2-amino-5-(1,3-dimethyl-1H-pyrazol-4-yl)pyridin-3-yl)-2-fluoro-N-(1-(3-fluorophenyl)-2-hydroxyethyl) benzamide]",1.2
15,"Cc1nn(C)cc1-c1cnc(N)c(-c2ccc(C(=O)N[C@H](CO)c3cccc(S(C)(=O)=O)c3)c(F)c2)c1 [Example 284, (S)-4-(2-amino-5-(1,3-dimethyl-1H-pyrazol-4-yl)pyridin-3-yl)-2-fluoro-N-(2-hydroxy-1-(3-(methylsulfonyl)phenyl)ethyl) benzamide]",0.296
16,"CS(=O)(=O)c1cc(F)cc(CNC(=O)c2ccc(-c3nc(C4CC4)cnc3N)cc2F)c1 [Example 286, 4-(3-amino-6-cyclo-propylpyrazin-2-yl)-2-fluoro-N-(3-fluoro-5-(methylsulfonyl)benzyl)benzamide]",3.9
